Test results: article PMC7761903, “Aldehyde Dehydrogenases and Prostate Cancer: Shedding Light on Isoform Distribution to Reveal Druggable Target” (Biomedicines, 2020)
Entries after “also recorded” stand apart in the source; their conditions may differ.

Assays:
Format in all cases: cell-based, human
PC3 cell line [1] = experiment: Alamar Blue cell viability, PC3; settings: for EC50: 72 h exposure, Alamar Blue
Text: (§1) Five different prostate cell lines, including normal cell line PNT2-C2 (Merck), benign prostatic hyperplasia cell line BPH1 (gift from Simon W. Hayward, Evanston, IL, USA), and cancer cell lines including PC-3 (derived from prostate cancer bone metastasis) (ATCC), LNCaP (derived from prostate cancer lymph node metastasis) (ATCC), and P4E6 (derived from localized prostate cancer) (derived in York and available from European Collection of Authenticated Cell Cultures ECACC), as well as two primary malignant cell lines, H796/19 and H798/19 (both Gleason 7 grade cancers) (obtained in York with ethical permission, REC ref 07/H1304/121) were used in the study. Culturing of commercially available cell lines and processing and culturing of primary cells were carried out as previously described. Primary cells were typically used at a passage <5 since they have finite growth and the intention is to maintain them as close to the original tumor as possible.
(§2) AlamarBlue quantitatively measures cell viability since actively metabolizing cells can reduce its active ingredient resazurin to a fluorescent molecule (resorufin) which can be subsequently analyzed on a plate reader. Cells were plated in 96 well plates at a density of 5000 cells/well and left to adhere overnight in 200 μL media. The following day cells were treated with 9 different concentrations of the test drugs in triplicate, ranging from 10^−5 M to 10^−13 M. After 72 h exposure 20 μL of AlamarBlue reagent (diluted 1:10 in the corresponding media for each cell line) was added to each well and incubated at 37 °C for 2 h. Fluorescence intensity was determined using a microplate reader (Polarstar Optima, BMG Labtech) at excitation/emission values 73 of 544/590 nm. EC50 values were calculated using the software GraphPad Prism Version 6 (San Diego, CA, USA).

[2] = system: PNT2-C2 normal prostate epithelial cell line; experiment: Alamar Blue cell viability, PNT2-C2; settings: 72 h exposure
Text: as §1, §2

LNCaP cell line = experiment: Alamar Blue cell viability, LNCaP; settings: 72 h exposure
Text: as §1, §2

P4E6 cell line = experiment: Alamar Blue cell viability, P4E6; settings: for EC50: 72 h exposure, Alamar Blue
Text: as §1, §2

[3] = system: BPH1 benign prostatic hyperplasia cell line; experiment: Alamar Blue cell viability, BPH1
Text: as §1, §2

PC3 cell line [4] = experiment: Colony-forming assay, PC3; settings: 72 h exposure at EC50, EC50×2, EC50×5
Experimental: PNT2-C2, BPH1 and PC3 cell lines were plated in 12-well plates with a density of 4 × 10^4 cells/well and left to adhere overnight in 1.00 mL media. The following day cells were treated with 3 different concentrations of the test drugs, based on the EC50 values in cell viability (EC50, EC50×2, EC50×5). After 72 h of exposure, cells were counted and plated into 12 well plates in triplicate with a density of 100 cells/well. At day 8, cells were stained with crystal violet (1% (w/v) crystal violet, 10% (v/v) ethanol in PBS). Colonies consisting of >32 cells were counted (representative of 5 population doublings).

[5] = system: ALDH1A1 gene expression in primary prostate epithelial cell cultures; experiment: qPCR ALDH1A1 gene expression after atRA treatment; settings: atRA 100 nM, 72 hours; 1xBPH, 1xBPH-PIN, 2x PCa primary cultures; no statistical test
Experimental: (§3) RNA extraction was carried out using the RNeasy Mini Kit (Qiagen, Hilden, Germany). The concentration and quality of the eluted RNA were determined using a NanodropTM2000 (Thermo Fisher Scientific, Waltham, MA, USA) spectrophotometer and measuring the 260/280 ratio. Total RNA of 50–2000 ng was reverse transcribed into single-stranded cDNA using the High Capacity cDNA Reverse Transcription Kit (Thermo Fisher Scientific, Waltham, MA, USA). Once the reaction finished, samples were purified using the QIAquick PCR Purification Kit (Qiagen). The concentration and quality of the cDNA was measured by using the NanodropTM2000 spectrophotometer. qPCR was carried out in 25 μL total PCR reaction using the TaqMan Universal PCR Master Mix (Applied Biosystems, Thermo Fisher Scientific, Waltham, MA, USA). The PCR reaction consisted of 12.5 μL of 2× master mix, 1.25 μL of 20× TaqMan Gene Expression Assay Mix (Supplementary Table S1), and 11.25 μL cDNA diluted in dH2O. A 96-well MicroAmp Optical plate (Applied Biosystems) was used and all reactions were run in triplicates. Primers used were obtained from TaqMan Gene Expression Assays (Thermo Fisher Scientific, Waltham, MA, USA). […] The gene expression level relative to internal control RPLP0 was calculated using the formula 2^−∆CT and the fold change in gene expression was worked out using the 2^−∆∆CT method. […]

[6] = system: ALDH1A3 gene expression in primary prostate epithelial cell cultures; experiment: qPCR ALDH1A3 gene expression after atRA treatment; settings: atRA 100 nM, 72 hours; 1xBPH, 1xBPH-PIN, 2x PCa primary cultures; no statistical test
Experimental: as §3

Row | EC50 (PC3 cell line [1]) | EC50 (LNCaP cell line) | SMILES | EC50 [2] | EC50 (P4E6 cell line) | EC50 ([3]; 72 h exposure) | further results
1 | 239 nM | 315 nM | c1ccc(-c2ccc3nc(-c4ccccc4)cn3c2)cc1 [Compound 3a] | 423 nM | 60.7 nM | 113 nM | –
2 | – | – | Fc1ccc(-c2ccc3nc(-c4ccccc4)cn3c2)cc1 [Compound 3b, 6-(4-fluorophenyl)-2-phenylimidazo [1,2-a]pyridine] | – | – | – | EC50 (PC3 cell line [1]; Homo sapiens, PC-3): 70.9 nM; antiproliferative activity against PC3 (PC3 cell line [1]; result in words): antiproliferative activity in the nanomolar range; also recorded: nanomolar efficacy; EC50 ([2]; Homo sapiens, Epithelial cell): 217 nM; EC50 (LNCaP cell line; Homo sapiens, LNCaP): 240 nM; EC50 (P4E6 cell line; Homo sapiens): 4.04 nM; antiproliferative activity against P4E6 (P4E6 cell line; result in words): antiproliferative activity in the nanomolar range; also recorded: nanomolar efficacy; colony-forming efficiency PC3 (PC3 cell line [4]): inhibitory efficacy against PC3 colony-forming efficiency; EC50 ([3]; Homo sapiens, BPH-1, 72 h exposure): 41.5 nM
3 | 322 nM | 323 nM | Clc1ccc(-c2ccc3nc(-c4ccccc4)cn3c2)cc1 [Compound 3c] | 325 nM | 33.4 nM | 416 nM | –
4 | – | 7180 nM | N#Cc1cccc(-c2ccc3nc(-c4ccccc4)cn3c2)c1 [Compound 3d] | 1720 nM | 440 nM | 351 nM | selectivity of PC3 colony forming inhibition versus PNT2-C2 or BPH-1 (PC3 cell line [4]): selectively inhibited PC3 colony forming more strongly than PNT2-C2 or BPH-1; also recorded: selective inhibition of PC3 colony formation
5 | – | – | CC1=C(/C=C/C(C)=C/C=C/C(C)=C/C(=O)O)C(C)(C)CCC1 [atRA] | – | – | – | gene expression for ALDH1A1 [5]: no apparent effect; gene expression for ALDH1A3 [6]: increase
